Marks after values point to notes of the source that are not given here.
Tests used:
MoAb MNV80 (IgG1, κ) = format: binding, mouse
MoAb MNV87 (IgG1, κ) = format: binding, mouse
[1] = system: PoAbs (anti-NIV polyclonal antibodies, mouse serum); format: binding
[2] = cited from earlier work
[3] = system: monoclonal antibody (MoAb) prepared by Maragos et al.; conditions: cited from earlier work
animals = conditions: cited from earlier work

Compound | IC50 (fifty percent inhibitory concentration) with MoAb MNV80 (MoAb MNV80 (IgG1, κ)) [ng/mL] | reactivity with MNV80 (in words) (MoAb MNV80 (IgG1, κ)) | IC50 (fifty percent inhibitory concentration) with MoAb MNV87 (MoAb MNV87 (IgG1, κ)) [ng/mL] | reactivity with MNV87 (in words) (MoAb MNV87 (IgG1, κ)) | IC50 (fifty percent inhibitory concentration) with PoAb [1] | temporary tolerable daily intake level ([2]; LOAEL with a safety factor of 1000) [μg/kg body weight] | fold lower IC50 than that with NIV, MNV80 (MoAb MNV80 (IgG1, κ)) [fold] | reaction range, concentrations between the IC20 and IC80 values, MNV80 (MoAb MNV80 (IgG1, κ)) [ng/mL] | fold lower IC50 than that with NIV, MNV87 (MoAb MNV87 (IgG1, κ)) [fold] | reaction range, concentrations between the IC20 and IC80 values, MNV87 (MoAb MNV87 (IgG1, κ)) [ng/mL] | fold lower IC50 than that with NIV, PoAbs [1] [fold] | reaction range, concentrations between the IC20 and IC80 values, PoAbs [1] [ng/mL] | cross-reactivity compared to reactivity with DON [3] [%] | toxicity to animals compared with DON (in words) (animals) | IC50 of PoAb after the 1st booster immunization [1] [ng/mL] | lowest observed adverse effect level [2] [mg/kg body weight per day]
CC1=C[C@H]2O[C@@H]3[C@H](O)C[C@](C)([C@@]2(CO)[C@H](O)C1=O)[C@]31CO1 [DON, deoxynivalenol] | >1000 | not | >1000 | not | >1000 ng/mL | 1.0 |  |  |  |  |  |  |  |  |  | 
CC(=O)OC[C@]12[C@H](O)C(=O)C(C)=C[C@H]1O[C@@H]1[C@H](O)[C@@H](O)[C@@]2(C)[C@]12CO2 [15-Ac-NIV, 15-acetylnivalenol] | 18 | specifically reacted | 18 | specifically reacted | 11 ng/mL |  | 2 | 2.8 to 100 | 2 | 2.4 to 95 | 6.4 | 1.7 to 85 |  |  |  | 
CC(=O)OC[C@]12[C@H](O)C(=O)C(C)=C[C@H]1O[C@@H]1[C@H](O)C[C@@]2(C)[C@]12CO2 [15-Ac-DON, 15-acetyldeoxynivalenol] | >1000 |  | >1000 |  |  |  |  |  |  |  |  |  |  |  |  | 
CC(=O)O[C@@H]1C[C@]2(C)[C@@]3(CO)[C@H](O)C(=O)C(C)=C[C@H]3O[C@H]1[C@@]21CO1 [3-Ac-DON, 3-acetyldeoxynivalenol] | >1000 |  | >1000 |  |  |  |  |  |  |  |  |  |  |  |  | 
CC1=C[C@H]2O[C@@H]3[C@H](O)[C@@H](O)[C@](C)([C@@]2(CO)[C@H](O)C1=O)[C@]31CO1 [NIV, nivalenol] | 36 | specifically reacted | 37 | specifically reacted | 70 * ng/mL |  |  | 6.9 to 180 |  | 7.1 to 170 |  | 12 to 950 | 57.4 | more toxic to animals than DON | 1400 | 0.7
4-acetylnivalenol [4-Ac-NIV] | >1000 | not | >1000 | not | >1000 ng/mL |  |  |  |  |  |  |  |  |  |  | 
